Measurements: patent US10548899B2, “Quinazolinone and benzotriazinone compounds with cholinergic muscarinin M1 receptor positive allosteric modulator activity” (TAKEDA PHARMACEUTICAL COMPANY LIMITED, priority 2015, dated 2020)
Where a name gives a salt, the structure may show the parent alone.

Molecular target: T1, human M1 receptor (hCHRM1) (Homo sapiens, UniProt P11229)
T1 construct: expressed in transfected cells; host or cells: CHO-K1
T1 sequence (P11229 1-460): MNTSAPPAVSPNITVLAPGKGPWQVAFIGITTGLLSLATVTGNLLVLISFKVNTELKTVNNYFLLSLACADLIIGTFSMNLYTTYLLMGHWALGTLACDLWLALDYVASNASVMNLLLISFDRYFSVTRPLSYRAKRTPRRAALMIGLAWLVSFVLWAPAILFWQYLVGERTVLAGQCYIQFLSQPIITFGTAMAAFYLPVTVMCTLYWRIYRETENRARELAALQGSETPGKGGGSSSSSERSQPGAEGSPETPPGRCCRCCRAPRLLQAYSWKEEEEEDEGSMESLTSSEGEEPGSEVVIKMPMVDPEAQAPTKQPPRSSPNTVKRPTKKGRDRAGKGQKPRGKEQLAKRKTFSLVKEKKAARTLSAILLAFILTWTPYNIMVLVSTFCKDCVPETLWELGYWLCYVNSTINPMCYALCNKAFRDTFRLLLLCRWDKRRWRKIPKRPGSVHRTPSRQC
Assay: Measurement of M1 receptor positive allosteric modulator (M1PAM) activity (calcium fluorescence, Fluo-4, FDSS)
Type: cell-based
Details: for activity (%) at 10 μM: 10 μM test compound, acetylcholine EC20 (final 0.8 nM) present, 100% = acetylcholine 1 μM, 0% = DMSO, CHO-K1 hCHRM1 cells; for EC50: inflection point of concentration-dependent curve, CHO-K1 cells stably expressing hCHRM1, in presence of acetylcholine at EC20 concentration (final 0.8 nM), read-out: IP value
Protocol: Measurement of M1 receptor positive allosteric modulator (M1PAM) activity
The activity of a test compound in the presence of acetylcholine at EC20 concentration (final concentration 0.8 nM), which affords an action corresponding to about 20% of the maximum activity, was measured as PAM activity. The method is as follows. CHO-K1 cells stably expressing a human M1 receptor (hCHRM1) were plated on a 384-well black clear bottom plate (BD Falcon) at 5,000 cells/well, and cultured in an incubator at 37° C., 5% CO2 for 1 day. The medium in the cell plate was removed, and assay buffer A containing a calcium indicator (Recording medium (DOJINDO LABORATORIES), 0.1% BSA (Wako Pure Chemical Industries, Ltd.), 2.5 μg/mL Fluo-4 AM (DOJINDO LABORATORIES), 0.08% Pluronic F127 (DOJINDO LABORATORIES) and 1.25 mM probenecid (DOJINDO LABORATORIES) were added at 30 μL/well. The cells were left standing in the incubator at 37° C., 5% CO2 for 30 min, and further left standing at room temperature for 30 min. A test compound prepared by diluting with assay buffer B (HESS (Invitrogen), 20 mM HEPES (Invitrogen), 0.1% BSA) containing 3.2 nM acetylcholine was added at 10 μL/well, and the fluorescence was measured by FDSS/μcell (Hamamatsu Photonics K.K.) for 1 min every for 1 second. With the definition that the amount of change in the fluorescence on addition of acetylcholine (final concentration 1 μM) is 100% and that on addition of DMSO instead of a test compound is 0%, the activity (%) of the test compound was calculated, and the inflection point in the concentration-dependent curve of the test compound was calculated as IP values.

activity (%) at 10 μM | EC50 | SMILES
92% | 52 nM | Cc1c(Cc2ccc(-n3cccn3)cc2)cc2c(=O)n([C@H]3CCCC[C@@H]3O)cnc2c1C (relative stereo) [Example 1, 3-(trans-2-hydroxycyclohexyl)-7,8-dimethyl-6-(4-(1H-pyrazol-1-yl)benzyl)quinazolin-4(3H)-one]
96% | 61 nM | Cc1c(Cc2ccc(-n3cccn3)cc2)cc2c(=O)n([C@H]3CCC[C@@H]3O)cnc2c1C (relative stereo) [Example 2, 3-(trans-2-hydroxycyclopentyl)-7,8-dimethyl-6-(4-(1H-pyrazol-1-yl)benzyl)quinazolin-4(3H)-one]
98% | 15 nM | Cc1c(Cc2ccc(-n3cccn3)cc2)cc2c(=O)n([C@H]3COCC[C@@H]3O)cnc2c1C (relative stereo) [Example 3, 3-(trans-4-hydroxytetrahydro-2H-pyran-3-yl)-7,8-dimethyl-6-(4-(1H-pyrazol-1-yl)benzyl)quinazolin-4(3H)-one]
101% | 15 nM | Cc1c(Cc2ccc(-c3cn(C)nn3)cc2)cc2c(=O)n([C@H]3CCC[C@@H]3O)cnc2c1C (relative stereo) [Example 11, 3-(trans-2-hydroxycyclopentyl)-7,8-dimethyl-6-(4-(1-methyl-1H-1,2,3-triazol-4-yl)benzyl)quinazolin-4(3H)-one]
99% | 39 nM | Cc1cc(-c2ccc(Cc3cc4c(=O)n([C@H]5CCC[C@@H]5O)cnc4c(C)c3C)cn2)ccn1 (relative stereo) [Example 12, 3-(trans-2-hydroxycyclopentyl)-7,8-dimethyl-6-((2′-methyl-2,4′-bipyridin-5-yl)methyl)quinazolin-4(3H)-one]
100% | 11 nM | Cc1c(Cc2ccc(-c3cn(C)nn3)nc2)cc2c(=O)n([C@H]3CCC[C@@H]3O)cnc2c1C (relative stereo) [Example 14, 3-(trans-2-hydroxycyclopentyl)-7,8-dimethyl-6-((6-(1-methyl-1H-1,2,3-triazol-4-yl)pyridin-3-yl)methyl)quinazolin-4(3H)-one]
100% | 11 nM | Cc1c(Cc2ccc(-c3cnn(C)c3)nc2)cc2c(=O)n([C@H]3CCC[C@@H]3O)cnc2c1C (relative stereo) [Example 15, 3-(trans-2-hydroxycyclopentyl)-7,8-dimethyl-6-((6-(1-methyl-1H-pyrazol-4-yl)pyridin-3-yl)methyl)quinazolin-4(3H)-one]
90% | 55 nM | Cc1c(Cc2ccc(-c3cnn(C)c3)cc2)cc2c(=O)n([C@H]3CCC[C@@H]3O)cnc2c1C (relative stereo) [Example 17, 3-(trans-2-hydroxycyclopentyl)-7,8-dimethyl-6-(4-(1-methyl-1H-pyrazol-4-yl)benzyl)quinazolin-4(3H)-one]
97% | 66 nM | Cc1c(Cc2ccc(Cl)nc2)cc2c(=O)n([C@H]3CCCC[C@@H]3O)cnc2c1C (relative stereo) [Example 19, 6-((6-chloropyridin-3-yl)methyl)-3-(trans-2-hydroxycyclohexyl)-7,8-dimethylquinazolin-4(3H)-one]
97% | 61 nM | COc1cc(Cc2ccc(-c3cnn(C)c3)cc2)cc2c(=O)n([C@H]3CCC[C@@H]3O)cnc12 (relative stereo) [Example 20, 3-(trans-2-hydroxycyclopentyl)-8-methoxy-6-(4-(1-methyl-1H-pyrazol-4-yl)benzyl)quinazolin-4(3H)-one]
97% | 51 nM | Cc1cc2ncn([C@H]3CCC[C@@H]3O)c(=O)c2cc1Cc1ccc(-c2cn(C)nn2)cc1 (relative stereo) [Example 21, 3-(trans-2-hydroxycyclopentyl)-7-methyl-6-(4-(1-methyl-1H-1,2,3-triazol-4-yl)benzyl)quinazolin-4(3H)-one]
96% | 41 nM | Cc1ccc(Cc2cc3c(=O)n([C@H]4CCCC[C@@H]4O)cnc3c(C)c2C)cn1 (relative stereo) [Example 35, 3-(trans-2-hydroxycyclohexyl)-7,8-dimethyl-6-((6-methylpyridin-3-yl)methyl)quinazolin-4(3H)-one]
94% | 70 nM | Cc1c(Cc2ccc(-c3cn(C)nn3)cc2)cc2c(=O)n([C@H]3CCC[C@@H]3O)nnc2c1C (relative stereo) [Example 40, 3-(trans-2-hydroxycyclopentyl)-7,8-dimethyl-6-(4-(1-methyl-1H-1,2,3-triazol-4-yl)benzyl)-1,2,3-benzotriazin-4(3H)-one]
100% | 31 nM | Cc1c(Cc2ccc(-n3ccnc3)nc2)cc2c(=O)n([C@H]3COCC[C@@H]3O)nnc2c1C (relative stereo) [Example 42, 3-(trans-4-hydroxytetrahydro-2H-pyran-3-yl)-6-((6-(1H-imidazol-1-yl)pyridin-3-yl)methyl)-7,8-dimethyl-1,2,3-benzotriazin-4(3H)-one]
97% | 32 nM | Cc1c(Cc2ccc(-c3ccn(C)n3)cc2)cc2c(=O)n([C@H]3COCC[C@@H]3O)nnc2c1C (relative stereo) [Example 46, 3-(trans-4-hydroxytetrahydro-2H-pyran-3-yl)-7,8-dimethyl-6-(4-(1-methyl-1H-pyrazol-3-yl)benzyl)-1,2,3-benzotriazin-4(3H)-one]
95% | 79 nM | Cc1c(Cc2ccc(-c3cn(C)nn3)cc2)cc2c(=O)n([C@H]3CCC[C@@H]3O)cnc2c1C (single isomer, unassigned) [Example 22, 3-(trans-2-hydroxycyclopentyl)-7,8-dimethyl-6-(4-(1-methyl-1H-1,2,3-triazol-4-yl)benzyl)quinazolin-4(3H)-one]
88% | 13 nM | Cc1c(Cc2ccc(-c3cn(C)nn3)cc2)cc2c(=O)n([C@@H]3CCC[C@H]3O)cnc2c1C (single isomer, unassigned) [Example 23, 3-(trans-2-hydroxycyclopentyl)-7,8-dimethyl-6-(4-(1-methyl-1H-1,2,3-triazol-4-yl)benzyl)quinazolin-4(3H)-one]
102% | 6.5 nM | Cc1c(Cc2ccc(-c3cnn(C)c3)nc2)cc2c(=O)n([C@H]3CCC[C@@H]3O)cnc2c1C (single isomer, unassigned) [Example 50, 3-(trans-2-hydroxycyclopentyl)-7,8-dimethyl-6-((6-(1-methyl-1H-pyrazol-4-yl)pyridin-3-yl)methyl)quinazolin-4(3H)-one]
97% | 79 nM | Cc1c(Cc2ccc(-c3cnn(C)c3)nc2)cc2c(=O)n([C@H]3CCC[C@@H]3O)cnc2c1C (single isomer, unassigned) [Example 51, 3-(trans-2-hydroxycyclopentyl)-7,8-dimethyl-6-((6-(1-methyl-1H-pyrazol-4-yl)pyridin-3-yl)methyl)quinazolin-4(3H)-one]
98% | 6 nM | Cc1c(Cc2ccc(-n3cccn3)cc2)cc2c(=O)n([C@H]3COCC[C@@H]3O)cnc2c1C (single isomer, unassigned) [Example 52, 3-(trans-4-hydroxytetrahydro-2H-pyran-3-yl)-7,8-dimethyl-6-(4-(1H-pyrazol-1-yl)benzyl)quinazolin-4(3H)-one]
95% | 62 nM | Cc1c(Cc2ccc(-c3cnn(C)c3)nc2)cc2c(=O)n(CC3CCCO3)cnc2c1Cl (centres unmarked) [Example 25, 8-chloro-7-methyl-6-((6-(1-methyl-1H-pyrazo-4-yl)pyridin-3-yl)methyl)-3-(tetrahydrofuran-2-ylmethyl)quinazolin-4(3H)-one hydrochloride]
100% | 17 nM | Cc1c(Cc2ccc(-n3cccn3)cc2)cc2c(=O)n([C@H]3COCC[C@@H]3O)cnc2c1F [Example 38, 8-fluoro-3-((3S,4S)-4-hydroxytetrahydro-2H-pyran-3-yl)-7-methyl-6-(4-(1H-pyrazol-1-yl)benzyl)quinazolin-4(3H)-one]
